Test results: patent publication US9695155B2, “Herbicidal substituted pyrimidinyloxy benzene compounds” (E. I. DU PONT DE NEMOURS AND COMPANY, priority 2013, dated 2017)
Where two headings read alike, the source gives them in different places.

Tests used:
barnyardgrass = assay: Test A preemergence; format: in vivo, Echinochloa crus-galli; conditions: for pest or weed control at 125 g/ha / pest or weed control at 500 g/ha: Echinochloa crus-galli, pre-emergence, 240 h
Outline: (§1)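 Visual 0–100 rating (100 = complete control) taken about 10 d post-treatment relative to untreated checks. Preemergence: directed soil spray on sown loam/sand pots. Postemergence: seedlings 2–10 cm, 1–2 leaf. Non-phytotoxic solvent formulation with surfactant.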

velvetleaf = assay: Test A postemergence; format: in vivo, Abutilon theophrasti; conditions: for pest or weed control at 500 g/ha: read-out: Plant response rating Velvetleaf
Outline: as §1

rice = assay: Test B flooded paddy test; format: in vivo, Oryza sativa; conditions: Flood, 250 g ai/ha, 0 to 100 scale where 0 is no effect and 100 is complete control; for plant injury at 250 g/ha: Oryza sativa, read-out: Plant response rating, Rice
Outline: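 Compound added straight to paddy water, with pots kept flooded 3 cm above soil, on plants grown to the 2-leaf stage. Visual scoring 0-100 (100 = complete control) against untreated controls after 13 to 15 greenhouse days.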

blackgrass = assay: Test C postemergence; format: in vivo, Alopecurus myosuroides; conditions: for Blackgrass plant response rating / Plant response rating, Blackgrass: scale 0 to 100 (0 no effect, 100 complete control)
Text: (§2) Seeds of plant species selected from blackgrass (Alopecurus myosuroides), Italian ryegrass (Lolium multiflorum), wheat, winter (winter wheat, Triticum aestivum), galium (catchweed bedstraw, Galium aparine), corn (Zea mays), large (Lg) crabgrass (Digitaria sanguinalis), giant foxtail (Setaria faberii), johnsongrass (Sorghum halepense), lambsquarters (Chenopodium album), morningglory (Ipomoea coccinea), yellow nutsedge (Cyperus esculentus), pigweed (Amaranthus retroflexus), ragweed (common ragweed, Ambrosia elatior), soybean (Glycine max), barnyardgrass (Echinochloa crus-galli), oilseed rape (Brassica napus), waterhemp (common waterhemp, Amaranthus rudis), kochia (Kochia scoparia), wild oat (Avena fatua), surinam grass (Brachiaria decumbens), foxtail, green (green foxtail, Setaria viridis), goosegrass (Eleusine indica), bromegrass, downy (downy bromegrass, Bromus tectorum), nightshade (eastern black nightshade, Solanum ptycanthum), cocklebur (common cocklebur, Xanthium strumarium), cupgrass, woolly (woolly cupgrass, Eriochloa villosa), bermudagrass (Cynodon dactylon), sunflower, (common oilseed sunflower, Helianthus annuus), Russian thistle (Salsola kali), and velvetleaf (Abutilon theophrasti) were planted into a blend of loam soil and sand and treated preemergence with test chemicals formulated in a non-phytotoxic solvent mixture which included a surfactant.
(§3) At the same time, plants selected from these crop and weed species and also barley, winter (winter barley, Hordeum vulgare), windgrass (Apera spica-venti), chickweed (common chickweed, Stellaria media), deadnettle (henbit deadnettle, Lamium amplexicaule), and canarygrass (littleseed canarygrass, Phalaris minor) were planted in pots containing Redi-Earth® planting medium (Scotts Company, 14111 Scottslawn Road, Marysville, Ohio 43041) comprising spaghnum peat moss, vermiculite, wetting agent and starter nutrients and treated with postemergence applications of test chemicals formulated in the same manner. Plants ranged in height from 2 to 18 cm (1- to 4-leaf stage) for postemergence treatments. Treated plants and controls were maintained in a greenhouse for 13 to 15 days, after which time all species were compared to controls and visually evaluated. Plant response ratings, summarized in Table C, are based on a scale of 0 to 100 where 0 is no effect and 100 is complete control. A dash (-) response means no test result.

morningglory [1] = assay: Test C postemergence; format: in vivo, Ipomoea coccinea; conditions: for Morningglory plant response rating: 31 g ai/ha; for Morningglory plant response rating / Plant response rating, Morningglory: scale 0 to 100 (0 no effect, 100 complete control)
Text: as §2, §3

yellow nutsedge [2] = assay: Test C postemergence; format: in vivo, Cyperus esculentus; conditions: for Nutsedge, Yellow plant response rating: 31 g ai/ha; for Nutsedge, Yellow plant response rating / Plant response rating, Nutsedge, Yellow: scale 0 to 100 (0 no effect, 100 complete control)
Text: as §2, §3

kochia = assay: Test C postemergence; format: in vivo, Kochia scoparia; conditions: for Kochia plant response rating: 31 g ai/ha; for Kochia plant response rating / Plant response rating, Kochia: scale 0 to 100 (0 no effect, 100 complete control)
Text: as §2, §3

wild oat = assay: Test C postemergence; format: in vivo, Avena fatua; conditions: for Oat, Wild plant response rating: 31 g ai/ha; for Oat, Wild plant response rating / Plant response rating, Oat, Wild: scale 0 to 100 (0 no effect, 100 complete control)
Text: as §2, §3

galium = assay: Test C preemergence; format: in vivo, Galium aparine; conditions: Galium, pre-emergence
Text: as §2, §3

corn = assay: Test C preemergence; format: in vivo, Zea mays; conditions: Zea mays, pre-emergence
Text: as §2, §3

morningglory [3] = assay: Test C preemergence; format: in vivo, Ipomoea coccinea; conditions: Ipomoea, pre-emergence
Text: as §2, §3

yellow nutsedge [4] = assay: Test C preemergence; format: in vivo, Cyperus esculentus; conditions: Cyperus, pre-emergence
Text: as §2, §3

[5] = 125 g ai/ha, 0 to 100 scale where 0 is no effect and 100 is complete control
[6] = 31 g ai/ha, postemergence, visual rating, 13 to 15 days
[7] = 125 g ai/ha, postemergence, visual rating
[8] = Postemergence, 62 g ai/ha, 13 to 15 days
[9] = postemergence, visual rating, 13 to 15 days
[10] = 500 g ai/ha, 0 to 100 scale, 0 no effect, 100 complete control, approx. 10 days, read-out: Barnyardgrass plant response rating
[11] = Abutilon theophrasti, post-emergence, 240 h, 500 g ai/ha, 0 to 100 scale, 0 no effect, 100 complete control
[12] = 16 g ai/ha, postemergence, 0 is no effect, 100 is complete control

SMILES	Plant response rating, Rice (rice)	Blackgrass plant response rating (blackgrass; [6])	Plant response rating, Blackgrass (blackgrass; [7])	Morningglory plant response rating (morningglory [1]; [9])	Plant response rating, Morningglory (morningglory [1]; [7])	Nutsedge, Yellow plant response rating (yellow nutsedge [2]; [9])	Plant response rating, Nutsedge, Yellow (yellow nutsedge [2]; [7])	Kochia plant response rating (kochia; [9])	Plant response rating, Kochia (kochia; [7])	Oat, Wild plant response rating (wild oat; [9])	Plant response rating, Oat, Wild (wild oat; [7])	pest or weed control at 500 g/ha (barnyardgrass; [10]) [%]	pest or weed control at 500 g/ha (velvetleaf; [11]) [%]	plant injury at 250 g/ha (rice) [%]	Plant response rating (0 to 100), Blackgrass (blackgrass; [12])	Plant response rating, Blackgrass (blackgrass; Postemergence, 62 g ai/ha)	Plant response rating (0 to 100), Morningglory (morningglory [1]; [12])	Plant response rating, Morningglory (morningglory [1]; Postemergence, 62 g ai/ha)	Plant response rating (0 to 100), Nutsedge, Yellow (yellow nutsedge [2]; [12])	Plant response rating, Nutsedge, Yellow (yellow nutsedge [2]; Postemergence, 62 g ai/ha)	further results
Clc1cnc(Oc2ccccc2-n2cc(Cl)cn2)nc1 [Compound 3]	0																				Barnyardgrass plant response rating (barnyardgrass; [5]): 60; Barnyardgrass plant response rating (barnyardgrass; 500 g ai/ha, 0 to 100 scale, 0 no effect, 100 complete control, approx. 10 days): 100; Plant response rating, Velvetleaf (velvetleaf; [5]): 100; Plant response rating, Velvetleaf (velvetleaf; 500 g ai/ha, 0 to 100 scale, 0 no effect, 100 complete control): 100
N#Cc1cccc(Oc2ncc(Cl)cn2)c1-n1cc(-n2ccc(C(F)(F)F)n2)cn1 [Compound 284]	0	5	5	70	85	0	0	100	100	5	5										Barnyardgrass plant response rating (0 to 100 scale, 0 is no effect, 100 is complete control) (barnyardgrass; 125 g ai/ha): 60; Barnyardgrass plant response rating (barnyardgrass; 500 g ai/ha, 0 to 100 scale where 0 is no effect and 100 is complete control): 90; Plant response rating (0 to 100), Blackgrass (blackgrass; 250 g ai/ha, postemergence): 5; Plant response rating, Blackgrass (blackgrass; [8]): 5; Plant response rating (0 to 100), Morningglory (morningglory [1]; 250 g ai/ha, postemergence): 100; Plant response rating, Morningglory (morningglory [1]; [8]): 100; Plant response rating (0 to 100), Nutsedge, Yellow (yellow nutsedge [2]; 250 g ai/ha, postemergence): 5; Plant response rating, Nutsedge, Yellow (yellow nutsedge [2]; [8]): 0; Plant response rating (0 to 100), Kochia (kochia; 250 g ai/ha, postemergence): 100; Plant response rating, Kochia (kochia; [8]): 100; Plant response rating (0 to 100), Oat, Wild (wild oat; 250 g ai/ha, postemergence): 5; Plant response rating, Oat, Wild (wild oat; [8]): 5
FC(F)(F)c1cnn(-c2ccccc2Oc2ncc(Br)cn2)c1 [Compound 18, 5-bromo-2-[2-[4-(trifluoromethyl)-1H-pyrazol-1-yl]phenoxy]pyrimidine]												100	100	0							pest or weed control at 125 g/ha (barnyardgrass; 125 g ai/ha, 0 to 100 scale where 0 is no effect and 100 is complete control, read-out: Plant response rating, Barnyardgrass): 90%; pest or weed control at 125 g/ha (velvetleaf; Abutilon theophrasti, post-emergence, 240 h, 125 g ai/ha, 0 to 100 scale where 0 is no effect and 100 is complete control, read-out: Plant response rating, Velvetleaf): 100%; pest or weed control at 62 g/ha (galium; 62 g ai/ha, preemergence, scale 0 (no effect) to 100 (complete control), read-out: Galium plant response rating): 95%; pest or weed control at 125 g/ha (galium; 125 g ai/ha, preemergence, scale 0 (no effect) to 100 (complete control), read-out: Galium plant response rating): 100%; pest or weed control at 250 g/ha (galium; 250 g ai/ha, preemergence, scale 0 (no effect) to 100 (complete control), read-out: Galium plant response rating): 100%; pest or weed control at 31 g/ha (galium; Preemergence, 31 g ai/ha, scale 0 to 100, 0 no effect, 100 complete control, read-out: Plant response rating, Galium): 90%; plant injury at 62 g/ha (corn; 62 g ai/ha, preemergence, scale 0 (no effect) to 100 (complete control), read-out: Corn plant response rating): 10%; plant injury at 125 g/ha (corn; 125 g ai/ha, preemergence, scale 0 (no effect) to 100 (complete control), read-out: Corn plant response rating): 10%; plant injury at 250 g/ha (corn; 250 g ai/ha, preemergence, scale 0 (no effect) to 100 (complete control), read-out: Corn plant response rating): 35%; Corn plant response rating (crop injury, 0 = no effect, 100 = complete kill) at 31 g/ha (corn; Preemergence, 31 g ai/ha, scale 0 to 100, 0 no effect, 100 complete control): 0%; pest or weed control at 62 g/ha (morningglory [3]; 62 g ai/ha, preemergence, scale 0 (no effect) to 100 (complete control), read-out: Morningglory plant response rating): 30%; pest or weed control at 125 g/ha (morningglory [3]; 125 g ai/ha, preemergence, scale 0 (no effect) to 100 (complete control), read-out: Morningglory plant response rating): 80%; pest or weed control at 250 g/ha (morningglory [3]; 250 g ai/ha, preemergence, scale 0 (no effect) to 100 (complete control), read-out: Morningglory plant response rating): 98%; pest or weed control at 31 g/ha (morningglory [3]; Preemergence, 31 g ai/ha, scale 0 to 100, 0 no effect, 100 complete control, read-out: Plant response rating, Morningglory): 10%; pest or weed control at 62 g/ha (yellow nutsedge [4]; 62 g ai/ha, preemergence, scale 0 (no effect) to 100 (complete control), read-out: Nutsedge, Yellow plant response rating): 15%; pest or weed control at 125 g/ha (yellow nutsedge [4]; 125 g ai/ha, preemergence, scale 0 (no effect) to 100 (complete control), read-out: Nutsedge, Yellow plant response rating): 25%; pest or weed control at 250 g/ha (yellow nutsedge [4]; 250 g ai/ha, preemergence, scale 0 (no effect) to 100 (complete control), read-out: Nutsedge, Yellow plant response rating): 35%; pest or weed control at 31 g/ha (yellow nutsedge [4]; Preemergence, 31 g ai/ha, scale 0 to 100, 0 no effect, 100 complete control, read-out: Plant response rating, Nutsedge, Yellow): 10%
Fc1cccc(Oc2ncc(Cl)cn2)c1-n1cc(C2CC2)nn1 [Compound 155]	50	5	5	80	85	5	5	98	100	0	25				0	5	70	80	5	5	Barnyardgrass plant response rating (barnyardgrass; 1000 g ai/ha, 0 to 100 scale, 0 no effect, 100 complete control, approx. 10 days): 100; Plant response rating (0 to 100), Kochia (kochia; [12]): 80; Plant response rating, Kochia (kochia; Postemergence, 62 g ai/ha): 98; Plant response rating (0 to 100), Oat, Wild (wild oat; [12]): 0; Plant response rating, Oat, Wild (wild oat; Postemergence, 62 g ai/ha): 5
FCc1cccc(Oc2ncc(Br)cn2)c1-n1cc(C(F)(F)F)cn1 [Compound 120]	0		30		80		25		100		5				0	5	20	35	0	10	Barnyardgrass plant response rating (0 to 100 scale) (barnyardgrass; 31 g ai/ha): 20; Plant response rating, Barnyardgrass (barnyardgrass; [5]): 70; Plant response rating, Blackgrass (blackgrass; Postemergence, 31 g ai/ha, 13 to 15 days): 5; Plant response rating (0 to 100), Kochia (kochia; [12]): 75; Plant response rating, Kochia (kochia; Postemergence, 62 g ai/ha): 95; Plant response rating (0 to 100), Oat, Wild (wild oat; [12]): 0; Plant response rating, Oat, Wild (wild oat; Postemergence, 62 g ai/ha): 5
FC(F)(F)c1ccn(-c2ccccc2Oc2ncc(Cl)cn2)n1 [Compound 2, 5-chloro-2-[2-[3-(trifluoromethyl)-1H-pyrazol-1-yl]phenoxy]pyrimidine]												90	60	0							pest or weed control at 125 g/ha (barnyardgrass; 125 g ai/ha, 0 to 100 scale where 0 is no effect and 100 is complete control, read-out: Barnyardgrass plant response rating): 30%
